Measurements: patent US20040253268A1, “Biological compositions and methods for treatment of uterine cancer” (priority 2003, published 2004)

How the values were obtained:
[1] = system: uterine cancer cell line CRL-1622; test: Tumor growth in 615 strain mouse model of human uterine cancer (Example 6); assay type: in vivo, 615 mice; conditions: day 31 after tumor inoculation; 30 days dosing; AY/NY 0.3 ml/day oral, MMC 0.8 mg/kg/day s.c.
From the text: The following example illustrates the benefit of a biological composition of the invention in a 615 strain mouse model of human uterine cancer. The growth of the tumor in the mice was studied.
Murine transplantable uterine cancer type CRL-1622 closely resembles the human uterine cancer pathology. The uterine cancer cell line CRL-1622 can be ordered from the American Type Culture Collection.
(§1) The biological composition comprising 10^8 cells per ml of activated and conditioned yeast cells of the strain Saccharomyces carlsbergensis Hansen strain AS2.605 was prepared by the methods described in Section 5.1 and subsections therein.
(§2) The animals used to generate the uterine cancer cells for the experiments were female 615 mice (obtainable from the Chinese Academy of Military Medical Sciences, Beijing, China), 4 to 6 months, having an average body weight of about 20 to 22 gram. About 1.2×10^7 viable tumor cells of the uterine cancer cell line CRL-1 622 (obtainable from the Cancer Institute, Chinese Academy of Medical Sciences, Beijing, China) in about 0.2 ml culture suspension were injected subcutaneously into the animals. […]
The mice received the biological composition, untreated yeast cells, MMC or saline on the same day as the tumor cells were transplanted. […] The weight of the mice and the weight of the tumor were determined by standard techniques.

[2] = system: uterine cancer cell line CRL-1622; test: Survival in 615 strain mouse model of human uterine cancer (Example 7); assay type: in vivo; conditions: 2AY/2NY 0.5 ml/day oral; for Number of live animals remaining in the groups after 30 days of treatment: 30 mice per group, 2MMC 1.2 mg/kg/day s.c.
Protocol: The following example illustrates the benefit of a biological composition of the invention in a model of human uterine cancer in a 615 strain mouse. The survival time of mice after tumor injection and treatment was studied.
as §1
(§3) The animals were prepared in a similar manner as described in Section 6.1. 7.2 Experimental Design The mice injected with tumor cells were immediately divided into 4 experimental groups of ten mice per group and one control group. The four experimental groups were triplicated (i.e., using a total of 120 mice in the experimental groups). In group 2AY, the mice received 0.5 ml of the biological composition once per day. In group 2NY, the mice received 0.5 ml of the untreated yeast cells once per day. In group 2MMC, the mice were injected subcutaneously with 1.2 mg of mitomycin C (MMC) per kg body weight per day. In group 2CK1, the mice received 0.5 ml of physiological saline once per day.
(§4) The mice received the biological composition, untreated yeast cells, MMC or saline on the same day as the tumor cells were transplanted. The mice in group 2CK2 also started receiving saline on the same day as the other four groups. The biological composition, untreated yeast cells and saline were administered orally by a feeding tube and the MMC by subcutaneous injection for 30 consecutive days. The mice were observed over 6 months from the day of tumor inoculation and survival was recorded. The weight of the mice and the weight of the tumor were determined by standard techniques.

[3] = system: uterine cancer cell line HTB-114; test: Tumor growth in kun ming mouse model of human uterine cancer (Example 8); assay type: in vivo; conditions: day 31 after tumor inoculation; 30 days dosing; AY/NY 0.3 ml/day oral, VCR 3 mg/kg/day i.v.
From the text: The following example illustrates the benefit of a biological composition of the invention in a kun ming mouse model of human uterine cancer. The growth of the tumor in the mice was studied.
Murine transplantable uterine cancer type HTB-114 closely resembles the human uterine cancer pathology. The uterine cancer cell line HTB-114 can be ordered from the American Type Culture Collection.
as §1
as §2, with “kun ming mouse” for “615 mice”, “5” for “4”, “HTB-114” for “CRL-1 622”
The mice received the biological composition, untreated yeast cells, VCR or saline on the same day as the tumor cells were transplanted. […] The weight of the mice and the weight of the tumor were determined by standard techniques.

[4] = system: uterine cancer cell line HTB-114; test: Survival in kun ming mouse model of human uterine cancer (Example 9); assay type: in vivo; conditions: 2AY/2NY 0.5 ml/day oral; for Number of live animals remaining in the groups after 30 days of treatment: 30 mice per group, 2VCR 4.5 mg/kg/day i.v.
Protocol: The following example illustrates the benefit of a biological composition of the invention in a kun ming mouse model of human uterine cancer. The survival time of mice after tumor injection and treatment was studied.
The biological composition comprising 10^8 cells per ml of activated and conditioned yeast cells of the strain Saccharomyces cartsbergensis Hansen strain AS2.605 was prepared by the methods described in Section 5.1 and subsections therein.
The animals were prepared in a similar manner as described in Section 8.1.
as §3, with “The” for “The animals were prepared in a similar manner as described in Section 6.1. 7.2 Experimental Design The”, “2VCR,” for “2MMC,”, “intravenously” for “subcutaneously”, “4.5” for “1.2”, “[…] (VCR)” for “mitomycin C (MMC)”
as §4, with “VCR” for “MMC”, “intravenous” for “subcutaneous”

[5] = 0 month after cessation of treatment
[6] = 1 month after cessation of treatment
[7] = 2 months after cessation of treatment
[8] = 3 months after cessation of treatment
[9] = 4 months after cessation of treatment
[10] = 5 months after cessation of treatment
[11] = 6 months after cessation of treatment
[12] = surviving mice after 6 months observation, 2MMC 1.2 mg/kg/day s.c. for 30 days
[13] = surviving mice after 6 months observation, 2VCR 4.5 mg/kg/day i.v. for 30 days

Compound: CO[C@@]12[C@H](COC(N)=O)C3=C(C(=O)C(C)=C(N)C3=O)N1C[C@@H]1N[C@@H]12 [MMC, mitomycin C]
- mean weight of mice and standard deviation [1]: 18.3 ± 3.1 g
- mean weight of tumor nodules and standard deviation [1]: 3.56 ± 2.32 mg
- Number of live animals remaining in the groups after 30 days of treatment [2, 5]: 30
- Number of live animals remaining in the groups after 30 days of treatment [2, 6]: 28
- survival time ([2]; 2MMC 1.2 mg/kg/day s.c. for 30 days, observed over 6 months): all died during the experiment
- Number of live animals remaining in the groups after 30 days of treatment [2, 7]: 26
- Number of live animals remaining in the groups after 30 days of treatment [2, 8]: 18
- Number of live animals remaining in the groups after 30 days of treatment [2, 9]: 7
- Number of live animals remaining in the groups after 30 days of treatment [2, 10]: 0
- Number of live animals remaining in the groups after 30 days of treatment [2, 11]: 0
- mean weight of mice and standard deviation [2, 12]: all animals dead
- mean weight of tumor nodules and standard deviation [2, 12]: all animals dead

Compound: CC[C@]1(O)C[C@@H]2CN(CCc3c([nH]c4ccccc34)[C@@](C(=O)OC)(c3cc4c(cc3OC)N(C)[C@H]3[C@@](O)(C(=O)OC)[C@H](OC(C)=O)[C@]5(CC)C=CCN6CC[C@]43[C@@H]65)C2)C1 [VCR, vinblastine]
- mean weight of mice and standard deviation [3]: 18.3 ± 3.3 g
- mean weight of tumor nodules and standard deviation [3]: 4.36 ± 2.45 g
- Number of live animals remaining in the groups after 30 days of treatment [4, 5]: 30
- Number of live animals remaining in the groups after 30 days of treatment [4, 6]: 28
- survival time ([4]; 2VCR 4.5 mg/kg/day i.v. for 30 days, observed over 6 months): all died during the experiment
- Number of live animals remaining in the groups after 30 days of treatment [4, 7]: 19
- Number of live animals remaining in the groups after 30 days of treatment [4, 8]: 11
- Number of live animals remaining in the groups after 30 days of treatment [4, 9]: 3
- Number of live animals remaining in the groups after 30 days of treatment [4, 10]: 0
- Number of live animals remaining in the groups after 30 days of treatment [4, 11]: 0
- mean weight of mice and standard deviation [4, 13]: all animals dead
- mean weight of tumor nodules and standard deviation [4, 13]: all animals dead
